Test results as given in patent US12612441B2, “Polypeptide and therapeutic uses thereof” (Vitalixir (Beijing) Co., Ltd, priority 2019, dated 2026).
“Also recorded” adds a separate entry of the source. Where no end group is shown, it is not given here. [ ]: non-standard residue; d: D form. Aib = CC(C)(N)C(=O)O

Tests used:
[1] = tested on: db/db mice; test: Blood glucose lowering in db/db mice (Example 12); format: in vivo; settings: db/db male mice, 35 nmol/kg subcutaneous single dose, 0-10 hours, AUC, vs PBS control; FIG. 9
Protocol: The feeding conditions of db/db mice were the same as described in Example 7. The db/db male mice (GemPharmatech, 7 weeks old) had one-week to acclimate to the environmental conditions of the test facility. Three days before the test (−3 day˜−1 day) baseline blood glucose and body weight were recorded. The mice were randomly grouped based on three-day blood glucose and body weight, with 6 mice in each group. Mice were injected subcutaneously with PBS (5 ml/kg, control group) or peptide compounds 42, 115, 178 (35 nmol/kg) at 10:00 in the morning. Blood was collected at 0 hour before drug administration, and 1.5, 4, 7, and 10 hours after administration, and blood glucose was measured using a OneTouch glucose meter (Johnson & Johnson) and test strips. By using time as the abscissa and the blood glucose value at different time points as the ordinate blood glucose curves were drawn, and the areas under the curve (AUC) were calculated to compare the hypoglycemic effects and duration of action of the peptide compounds.

[2] = tested on: DIO obese mice; test: DIO obese mice 14-day body composition study (Example 14); format: in vivo, C57BL/6 mice; settings: 1.5 nmole per animal s.c. once a day for 14 days
Protocol: The DIO obese mice experiment was conducted by Shanghai WuXi AppTec New Drug Development Co., Ltd. The animal feeding was the same as described in Example 13. The animals were adapted to grasping and subcutaneous injection for 1 week at 40 weeks of age. The body weight and food intake were measured for 3 consecutive days before the experiment, and the fasting blood glucose of the animals was measured 1 day before the experiment. The animals with abnormal blood glucose were removed, and the remaining animals were grouped according to the random blood glucose and body weight of the animals (using body weight as the main reference indicator), with 6 animals per group and an average weight of 47 grams. During the experiment, each group of the animals was injected subcutaneously with PBS, or 1.5 nmole of compound 35 or compound 40 per animal once a day, and the dosing period was 14 days. An EchoMRI body composition analyzer was used to measure the body fat content of the animals before and after the experiment.

[3] = tested on: db/db mice; test: Blood glucose lowering in db/db mice (Example 8); format: in vivo; settings: db/db male mice, 30 nmol/kg subcutaneous single dose, blood glucose 0-10 hours, AUC, vs PBS control; FIG. 2
Protocol: The feeding conditions of db/db mice were the same as described in Example 7. The db/db male mice (8 weeks old) were given one week to acclimate to the environmental conditions of the test facility. Baseline blood glucose and body weight were recorded for three days before the experiment (−3 day to −1 day). The mice were randomly grouped based on their three-day blood glucose and body weight, with 6 mice in each group. Mice were injected subcutaneously with PBS (5 ml/kg, control group) or the peptide compounds 31, 35, 38, 44 and 49 (30 nmol/kg) respectively at 10:00 in the morning. Blood was collected at 0 hour before drug administration, and 1, 2, 4, 6, 8, and 10 hours after administration, and blood glucose was measured using a OneTouch glucose meter (Johnson & Johnson) and test strips. Blood glucose curves were plotted with time as the abscissa and the blood glucose value at different time point as the ordinate, and the areas under the curve (AUC) were calculated.

Substance	blood glucose [1]	lean mass ([2]; EchoMRI day 0 vs day 15, FIG. 13)	fat mass ([2]; EchoMRI day 0 vs day 15, vs PBS control, FIG. 13)	blood glucose [3]
Y(aib)EGTFTSDLSI(aib)LEKEAVRLFIEWLLAGGPS-NH2 (YXEGTFTSDLSIXLEKEAVRLFIEWLLAGGPS; Aib; C-terminal amide; MOD_RES (2)..(2) X=aminoisobutyric aicd; MOD_RES (13)..(13) X=aminoisobutyric aicd; MOD_RES (32)..(32) AMIDATION, C-termianl amidation) [Compound 178]	significantly reduced blood glucose	–	–	–
Y(aib)EGTFTSDLSI(aib)LEKEAVRLFIEWLLAG-NH2 (YXEGTFTSDLSIXLEKEAVRLFIEWLLAG; Aib; C-terminal amide; MOD_RES (2)..(2) X=aminoisobutyric aicd; MOD_RES (13)..(13) X=aminoisobutyric aicd; MOD_RES (29)..(29) AMIDATION, C-termianl amidation) [Compound 42]	significantly reduced blood glucose	–	–	–
Y(aib)EGTFTSDLSI(aib)LEKEAVRLFIEWLLAGGPSSGA-NH2 (YXEGTFTSDLSIXLEKEAVRLFIEWLLAGGPSSGA; Aib; C-terminal amide; MOD_RES (2)..(2) X=aminoisobutyric aicd; MOD_RES (13)..(13) X=aminoisobutyric aicd; MOD_RES (35)..(35) AMIDATION, C-termianl amidation) [Compound 115]	significantly reduced blood glucose	–	–	–
Y(aib)EGTFTSDLSIALEKEAVRLFIEWLLAGGPSSGAPPPK-NH2 (Y[Aib]EGTFTSDLSIALEKEAVRLFIEWLLAGGPSSGAPPPK-NH2; N-terminus assumed; SMILES CC[C@H](C)[C@H](NC(=O)[C@H](CO)NC(=O)[C@H](CC(C)C)NC(=O)[C@H](CC(=O)O)NC(=O)[C@H](CO)NC(=O)[C@@H](NC(=O)[C@H](Cc1ccccc1)NC(=O)[C@@H](NC(=O)CNC(=O)[C@H](CCC(=O)O)NC(=O)C(C)(C)NC(=O)[C@@H](N)Cc1ccc(O)cc1)[C@@H](C)O)[C@@H](C)O)C(=O)N[C@@H](C)C(=O)N[C@@H](CC(C)C)C(=O)N[C@@H](CCC(=O)O)C(=O)N[C@@H](CCCCN)C(=O)N[C@@H](CCC(=O)O)C(=O)N[C@@H](C)C(=O)N[C@H](C(=O)N[C@@H](CCCNC(=N)N)C(=O)N[C@@H](CC(C)C)C(=O)N[C@@H](Cc1ccccc1)C(=O)N[C@H](C(=O)N[C@@H](CCC(=O)O)C(=O)N[C@@H](Cc1c[nH]c2ccccc12)C(=O)N[C@@H](CC(C)C)C(=O)N[C@@H](CC(C)C)C(=O)N[C@@H](C)C(=O)NCC(=O)NCC(=O)N1CCC[C@H]1C(=O)N[C@@H](CO)C(=O)N[C@@H](CO)C(=O)NCC(=O)N[C@@H](C)C(=O)N1CCC[C@H]1C(=O)N1CCC[C@H]1C(=O)N1CCC[C@H]1C(=O)N[C@@H](CCCCN)C(N)=O)[C@@H](C)CC)C(C)C) [Compound 35]	–	basically unchanged	effectively reduced fat mass; also recorded: decreased markedly	significantly reduced the blood glucose
